Measurements taken from ChEMBL document CHEMBL5108051, “Improving the Antimicrobial Performance of Amphiphilic Cationic Antimicrobial Peptides Using Glutamic Acid Full-Scan and Positive Charge Compensation Strategies” (J Med Chem, 2022).
Converted amounts (≈) assume the structure as drawn. The source made the active and inactive calls. No cut-off for these calls is given here. Bridge positions count the residues as written; N and C are the ends. Square brackets hold non-standard residues; d marks the D form. Peptide text beside a SMILES is read from it. * marks the point of attachment. X1 = CC[C@H](C)CCCCC(=O)*; Dab = NCC[C@H](N)C(=O)O

Experiments:
Staphylococcus aureus [1] = experiment: Antibacterial activity against Staphylococcus aureus ATCC 25923 assessed as growth inhibition measured after 18 to 24 hrs by CLSI based broth microdilution method; type: functional; settings: time 18-24 hrs
[2] = Cytotoxicity against human Glomerular mesenchymal cell assessed as reduction in cell viability at 0 to 128 uM incubated for 1 hr by Resazurin cell viability kit; type: toxicity, cell-based; settings: glomerular mesenchymal cells, dose 0-128 µM
[3] = Stability of compound in serum measured after 1 to 6 hrs by RP-HPLC analysis; type: ADME, cell-free; settings: time 1-6 hrs
Staphylococcus aureus [4] = experiment: Antimicrobial activity against Staphylococcus aureus ATCC 25923 in presence of NaCl; type: functional, organism-based
Escherichia coli [5] = experiment: Antimicrobial activity against Escherichia coli ATCC 25922 in presence of NaCl; type: functional, organism-based
Escherichia coli [6] = experiment: Antimicrobial activity against Escherichia coli ATCC 25922 in presence of KCl; type: functional, organism-based
Cell membrane [7] = experiment: Induction of cell membrane disruption in Staphylococcus aureus ATCC 25923 assessed as cell morphological damage measured after 30 mins by […] electron microscope analysis; type: subcellular
Cell membrane [8] = experiment: Induction of cell membrane disruption in Staphylococcus aureus ATCC 25923 assessed as increase in PI uptake measured after 30 to 120 mins by propidium iodide staining based FACS flow cytometry analysis (reference value: 15%); type: subcellular; settings: time 30-120 min
Cell membrane [9] = experiment: Induction of cytoplasmic membrane depolarization in Staphylococcus aureus ATCC 25923 assessed as increase in fluorescence intensity at 1 to 4 times MIC measured within 1 min by DiSC3-5 dye based fluorescence method; type: subcellular; settings: DDE = dose-dependent effect
Staphylococcus aureus [10] = experiment: Antibiofilm activity against Staphylococcus aureus ATCC 25923 assessed as inhibition of biofilm formation measured at 0.5 to 4 times MIC after 24 hrs by crystal violet staining based assay; type: functional, organism-based; settings: DDE = dose-dependent effect
Escherichia coli [11] = experiment: Antibacterial activity against Escherichia coli ATCC 25922 assessed as resistance development measured after 15 passages at sub-MIC concentration by resistance development assay; type: functional, organism-based
Escherichia coli [12] = experiment: Antibacterial activity against Escherichia coli ATCC 25922 assessed as inhibition of rifampin resistance development measured after 15 passages in presence of rifampin by resistance development assay; type: functional, organism-based
Staphylococcus aureus [13] = experiment: Antibacterial activity against Staphylococcus aureus ATCC 25923 assessed as fractional inhibitory concentration index in presence of polymyxin B by checkerboard assay; type: functional
Staphylococcus aureus [14] = experiment: Antibacterial activity against rifampin resistant Staphylococcus aureus ATCC 25923 assessed as fractional inhibitory concentration index in presence of polymyxin B by checkerboard assay; type: functional
Staphylococcus aureus [15] = experiment: Antibacterial activity against gentamicin resistant Staphylococcus aureus ATCC 25923 assessed as fractional inhibitory concentration index in presence of polymyxin B by checkerboard assay; type: functional
Escherichia coli [16] = experiment: Antibacterial activity against Escherichia coli ATCC 25922 assessed as fractional inhibitory concentration index in presence of polymyxin B by checkerboard assay; type: functional
Escherichia coli [17] = experiment: Antibacterial activity against Escherichia coli ATCC 25922 assessed as fractional inhibitory concentration index in presence of rifampin by checkerboard assay; type: functional
Escherichia coli [18] = experiment: Antibacterial activity against rifampin resistant Escherichia coli ATCC 25922 assessed as fractional inhibitory concentration index in presence of polymyxin B by checkerboard assay; type: functional
Escherichia coli [19] = experiment: Antibacterial activity against rifampin resistant Escherichia coli ATCC 25922 assessed as fractional inhibitory concentration index in presence of vancomycin by checkerboard assay; type: functional
Escherichia coli [20] = experiment: Antibacterial activity against gentamicin resistant Escherichia coli ATCC 25922 assessed as fractional inhibitory concentration index in presence of polymyxin B by checkerboard assay; type: functional
[21] = Acute toxicity in BALB/c mouse assessed as mortality at 40 mg/kg, ip administered as single dose measured for 7 days; type: organism-based; settings: in vivo, time 7 day, read-out: Activity
[22] = Acute toxicity in BALB/c mouse assessed as rough hairs at 40 to 80 mg/kg, ip administered as single dose measured for 7 days; type: organism-based; settings: in vivo, 168 h, dose 40-80 mg/kg, time 7 day
[23] = Acute toxicity in BALB/c mouse assessed as abdominal twitching at 40 to 80 mg/kg, ip administered as single dose measured for 7 days; type: organism-based; settings: in vivo, 168 h, dose 40-80 mg/kg, time 7 day
[24] = Acute toxicity in BALB/c mouse assessed as decrease in motility at 40 to 80 mg/kg, ip administered as single dose measured for 7 days; type: organism-based; settings: in vivo, 168 h, dose 40-80 mg/kg, time 7 day
[25] = Acute toxicity in BALB/c mouse assessed as pathological changes in heart at 20 to 80 mg/kg, ip administered as single dose measured for 7 days by H and E staining method; type: organism-based; settings: in vivo, 168 h, dose 20-80 mg/kg, time 7 day
[26] = Acute toxicity in BALB/c mouse assessed as pathological changes in lung at 20 to 80 mg/kg, ip administered as single dose measured for 7 days by H and E staining method; type: organism-based; settings: in vivo, 168 h, dose 20-80 mg/kg, time 7 day
Staphylococcus aureus [27] = experiment: In vivo antimicrobial activity against Staphylococcus aureus ATCC 25923 infected in BALB/C mouse pulmonary infection model at 5 to 10 mg/kg, ip; type: functional, organism-based; settings: dose 5-10 mg/kg
Staphylococcus aureus [28] = experiment: Antibacterial activity against Staphylococcus aureus ATCC 25923 infected in BALB/C mouse pulmonary infection model assessed as increase in alveolar aggregation in lung at 10 mg/kg, ip after 24 hrs by H and E staining method; type: functional, organism-based
Staphylococcus aureus [29] = experiment: Antimicrobial activity against Staphylococcus aureus ATCC 25923 assessed as fold increase in MIC in presence of NaCl; type: functional
Staphylococcus aureus [30] = experiment: Antimicrobial activity against Staphylococcus aureus ATCC 25923 assessed as fold increase in MIC in presence of MgCl2; type: functional
Escherichia coli [31] = experiment: Antibiofilm activity against Escherichia coli ATCC 25922 assessed as inhibition of biofilm formation at 0.5 times MIC measured after 24 hrs by crystal violet staining based assay; type: functional, organism-based
Escherichia coli [32] = experiment: Antibiofilm activity against Escherichia coli ATCC 25922 assessed as inhibition of biofilm formation at 1 times MIC measured after 24 hrs by crystal violet staining based assay; type: functional, organism-based
Staphylococcus aureus [33] = experiment: Antibacterial activity against Staphylococcus aureus ATCC 25923 assessed as fractional inhibitory concentration index in presence of rifampin by checkerboard assay; type: functional
Staphylococcus aureus [34] = experiment: Antibacterial activity against gentamicin resistant Staphylococcus aureus ATCC 25923 assessed as fractional inhibitory concentration index in presence of vancomycin by checkerboard assay; type: functional
[35] = Acute toxicity in BALB/c mouse assessed as ruffled hairs at 10 to 20 mg/kg, ip administered as single dose measured for 7 days; type: organism-based; settings: in vivo, 168 h, dose 10-20 mg/kg, time 7 day
[36] = Acute toxicity in BALB/c mouse assessed as abdominal twitching at 10 to 20 mg/kg, ip administered as single dose measured for 7 days; type: organism-based; settings: in vivo, 168 h, dose 10-20 mg/kg, time 7 day
[37] = Acute toxicity in BALB/c mouse assessed as pathological changes in heart at 10 to 40 mg/kg, ip administered as single dose measured for 7 days by H and E staining method; type: organism-based; settings: in vivo, 168 h, dose 10-40 mg/kg, time 7 day
Escherichia coli [38] = experiment: Antimicrobial activity against Escherichia coli ATCC 25922 assessed as reduction in survival rate in presence of 0.02 to 2000 microg/ml of chymotrypsin measured after 6 hrs; type: functional, organism-based

Row | Structure (SMILES) | MIC (Staphylococcus aureus [1]) | CC50 at 1 h [2] | Stability [3] | Activity (Escherichia coli [5]) | Activity (Escherichia coli [6]) | Activity (Cell membrane [7]) | Activity (Cell membrane [8]) | Activity (Cell membrane [9]) | Activity (Staphylococcus aureus [10]) | Activity (Escherichia coli [11]) | fractional inhibitory concentration index (FICI) (Staphylococcus aureus [13]) | fractional inhibitory concentration index (FICI) (Staphylococcus aureus [14]) | fractional inhibitory concentration index (FICI) (Staphylococcus aureus [15]) | fractional inhibitory concentration index (FICI) (Escherichia coli [16]) | fractional inhibitory concentration index (FICI) (Escherichia coli [17]) | fractional inhibitory concentration index (FICI) (Escherichia coli [18]) | fractional inhibitory concentration index (FICI) (Escherichia coli [19]) | fractional inhibitory concentration index (FICI) (Escherichia coli [20]) | Activity [25] | Activity (Staphylococcus aureus [27]) | other results
1 | CC(C)C[C@H](NC(=O)[C@H](CC(C)C)NC(=O)[C@H](CCC(=O)O)NC(=O)[C@H](CCCCN)NC(=O)[C@H](CC(C)C)NC(=O)[C@H](CC(C)C)NC(=O)[C@H](CCCCN)NC(=O)[C@H](C)NC(=O)[C@@H](NC(=O)[C@H](CCCCN)NC(=O)[C@@H]1CCCN1C(=O)[C@H](CC(C)C)NC(=O)[C@@H](N)Cc1ccccc1)C(C)C)C(N)=O (H-FLPKVAKLLKELL-NH2) | 8 µM (≈ 12.1 µg/mL) | > 128 µM | Stable | Active | Active | Active | 49.3% | Dde | Dde | Active | 0.75 | 0.5 | 0.75 | 0.375 | 0.625 | 0.25 | 0.825 | 0.75 | Non-Toxic | Active | Activity (Staphylococcus aureus [4]): Active; Activity (Escherichia coli [12]): Active; mortality at 168 h [21]: 20%; Activity [22]: Toxic; Activity [23]: Toxic; Activity [24]: Toxic; Activity [26]: Non-Toxic; Activity (Staphylococcus aureus [28]): Active
2 | CC[C@H](C)[C@H](NC(=O)[C@@H]1CCCN1C(=O)[C@H](CC(C)C)NC(=O)[C@@H](N)Cc1ccccc1)C(=O)N[C@H](C(=O)N[C@@H](C)C(=O)N[C@@H](CCCCN)C(=O)N[C@@H](CC(C)C)C(=O)N[C@@H](CC(C)C)C(=O)N[C@@H](CO)C(=O)NCC(=O)N[C@@H](CC(C)C)C(=O)N[C@@H](CC(C)C)C(N)=O)C(C)C (H-FLPIVAKLLSGLL-NH2) | 4 µM (≈ 5.53 µg/mL) | 35.9 µM |  |  |  | Active | 24.1% | Dde | Dde | Active | 0.75 | 0.5 | 0.625 | 0.625 | 1.25 | 0.25 | 0.25 | 0.75 | Non-Toxic | Active | fold change (FC) (Staphylococcus aureus [29]): 2; fold change (FC) (Staphylococcus aureus [30]): 2; Activity (Escherichia coli [31]): Active; Activity (Escherichia coli [32]): Active; fractional inhibitory concentration index (FICI) (Staphylococcus aureus [33]): 0.75; fractional inhibitory concentration index (FICI) (Staphylococcus aureus [34]): 0.625; mortality at 168 h [21]: 40%; Activity [22]: Toxic; Activity [23]: Toxic; Activity [24]: Toxic
3 | CC[C@H](C)CCCCC(=O)N[C@@H](CCN)C(=O)N[C@H](C(=O)N[C@@H](CCN)C(=O)N[C@H]1CCNC(=O)[C@H]([C@@H](C)O)NC(=O)[C@H](CCN)NC(=O)[C@H](CCN)NC(=O)[C@H](CC(C)C)NC(=O)[C@@H](Cc2ccccc2)NC(=O)[C@H](CCN)NC1=O)[C@@H](C)O (X1-[Dab]T[Dab][Dab][Dab][dF]L[Dab][Dab]T; lactam 4-C) | 16 µM (≈ 19.3 µg/mL) |  | Stable | Active | Active |  | 45.8% |  |  | Active |  |  |  |  | 0.1875 |  |  |  | Non-Toxic | Active | fold change (FC) (Staphylococcus aureus [29]): 4; fold change (FC) (Staphylococcus aureus [30]): 2; Activity (Escherichia coli [31]): Active; Activity (Escherichia coli [32]): Active; fractional inhibitory concentration index (FICI) (Staphylococcus aureus [33]): 2; fractional inhibitory concentration index (FICI) (Staphylococcus aureus [34]): 1; Activity [35]: Toxic; Activity [36]: Toxic; Activity [37]: Non-Toxic; Activity (Escherichia coli [38]): Active
